The values that follow come from PubChem BioAssay (NCI).

Molecules are shown by their SMILES.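 Interpolation was linear, between the two tested concentrations surrounding the appropriate level; five concentrations were tested over 48 hours in 96-well plates. TGI denotes the concentration required for complete inhibition of growth.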

Test systems include HOP-92 NSCLC; HCT-15 colon; ACHN renal; MDA-MB-435; HL-60(TB) leukemia; NCI/ADR-RES ovarian; RPMI-8226 leukemia; SF-268 CNS; OVCAR-5 ovarian; K-562 leukemia.
What all share (test): NCI-60 cell line screen, 48 h

Turning to `Nc1ccc(Cc2ccc(N)c(C(=O)O)c2)cc1C(=O)O`, the TGI in the test on HOP-92 NSCLC, in the test with HCT-15 colon, in the test with ACHN renal, with MDA-MB-435, in the test with HL-60(TB) leukemia and in the test on NCI/ADR-RES ovarian was more than 100 µM throughout. In addition, the TGI in the test on RPMI-8226 leukemia, in the test on SF-268 CNS, in the test with OVCAR-5 ovarian and in the test with K-562 leukemia was more than 100 µM in each case.

For `Cc1ccc(S(=O)(=O)Nc2cc(=O)[nH]c3c2CCC3)cc1`, the TGI in the test on HOP-92 NSCLC, in the test on HCT-15 colon, with ACHN renal, in the test with MDA-MB-435, in the test with HL-60(TB) leukemia and with NCI/ADR-RES ovarian was more than 100 µM throughout. The TGI in the test on RPMI-8226 leukemia, in the test on SF-268 CNS, in the test with OVCAR-5 ovarian and in the test on K-562 leukemia was more than 100 µM in each case.

`COc1ccc2c3c([nH]c2c1)[C@H](C=C(C)C)N1C(=O)[C@@H]2CCCN2C(=O)[C@@H]1C3`: the TGI with HOP-92 NSCLC, with HCT-15 colon, in the test with ACHN renal, in the test with MDA-MB-435, with HL-60(TB) leukemia and with NCI/ADR-RES ovarian was more than 100 µM in each case. Also, the TGI in the test on RPMI-8226 leukemia, with SF-268 CNS, in the test on OVCAR-5 ovarian and in the test on K-562 leukemia was more than 100 µM each time.

On to `O=S(C(c1ccccc1)=P(c1ccccc1)(c1ccccc1)c1ccccc1)c1ccc(Cl)cc1` (stereo not given), for which the TGI with HOP-92 NSCLC was 42.2 µM; in the test on HCT-15 colon it was more than 100 µM; with ACHN renal, 60 µM; with MDA-MB-435, 40.6 µM; in the test on HL-60(TB) leukemia, 45 µM; in the test with NCI/ADR-RES ovarian it was more than 100 µM. The TGI was more than 100 µM with RPMI-8226 leukemia, 87.9 µM in the test with SF-268 CNS, more than 100 µM in the test with OVCAR-5 ovarian and more than 100 µM with K-562 leukemia.

In the case of `CS(=O)(=O)Nc1ccc(NCc2cnc3ccc4[nH]cccc4c23)cc1`, the TGI with HOP-92 NSCLC is more than 100 µM; with HCT-15 colon, more than 100 µM; in the test on ACHN renal, more than 100 µM; with MDA-MB-435 it was 32.5 µM; in the test with HL-60(TB) leukemia, 52.6 µM; with NCI/ADR-RES ovarian, more than 100 µM. Moreover, the TGI in the test with RPMI-8226 leukemia was 31 µM; in the test on SF-268 CNS, 61.8 µM; in the test on OVCAR-5 ovarian, more than 100 µM; in the test with K-562 leukemia, 53.7 µM.

In the case of `CCC1=C(CC2NCCc3cc(OC)c(OC)cc32)CC2c3ccccc3CCN2C1` (stereo not given), the TGI was 42.6 µM in the test on HOP-92 NSCLC; more than 100 µM with HCT-15 colon; more than 100 µM in the test with ACHN renal; 25.8 µM in the test on MDA-MB-435; 46.5 µM in the test on HL-60(TB) leukemia; more than 100 µM with NCI/ADR-RES ovarian. For the same compound, the TGI with RPMI-8226 leukemia was 30.4 µM; with SF-268 CNS it was more than 100 µM; with OVCAR-5 ovarian it was more than 100 µM; in the test with K-562 leukemia, 22 µM.

As for `Nc1csc(-c2scc3c2OCCO3)c1N`, the TGI in the test with HOP-92 NSCLC is 71.8 µM; in the test with HCT-15 colon, 35.1 µM; with ACHN renal it was more than 100 µM; in the test on MDA-MB-435, 36.1 µM; in the test with HL-60(TB) leukemia it was 50.8 µM; with NCI/ADR-RES ovarian, 61.7 µM. Further, the TGI in the test with RPMI-8226 leukemia is more than 100 µM; in the test with SF-268 CNS it was 47.5 µM; in the test on OVCAR-5 ovarian, 39.9 µM; in the test on K-562 leukemia it was 87.4 µM.

Regarding `Fc1c(F)c(F)c(CSc2nc3ccccc3[nH]2)c(F)c1F`, the TGI in the test with HOP-92 NSCLC, in the test on HCT-15 colon, in the test on ACHN renal, in the test on MDA-MB-435, in the test with HL-60(TB) leukemia and in the test on NCI/ADR-RES ovarian was more than 100 µM in each case. The TGI in the test on RPMI-8226 leukemia, with SF-268 CNS, with OVCAR-5 ovarian and with K-562 leukemia was more than 100 µM throughout.
